Drawing on US20140228377A1, “METHYLPIPERIDINE DERIVATIVE” (TAISHO PHARMACEUTICAL CO., LTD., priority 2011, published 2014), this text covers IC50 for eleven compounds.

In assay [1] the target is T1, human orexin-1 receptor (hOX1R) (Homo sapiens, UniProt O43613).
T1 construct: expressed in transfected cells; host or cells: Chinese hamster ovary (CHO) cells
T1 sequence (O43613 1-425): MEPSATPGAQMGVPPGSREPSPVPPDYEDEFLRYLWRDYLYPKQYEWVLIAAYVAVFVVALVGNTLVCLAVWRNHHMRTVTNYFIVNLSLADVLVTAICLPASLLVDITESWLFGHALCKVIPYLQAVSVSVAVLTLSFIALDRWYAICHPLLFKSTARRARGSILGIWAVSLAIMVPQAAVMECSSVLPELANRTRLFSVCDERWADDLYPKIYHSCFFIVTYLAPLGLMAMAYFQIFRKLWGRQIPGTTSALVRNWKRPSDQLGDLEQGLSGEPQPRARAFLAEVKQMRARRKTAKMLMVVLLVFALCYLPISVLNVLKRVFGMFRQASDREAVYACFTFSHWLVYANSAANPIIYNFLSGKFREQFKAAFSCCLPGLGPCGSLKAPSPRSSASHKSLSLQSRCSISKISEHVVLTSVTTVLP
Put plainly: Orexin antagonistic activity assay (intracellular Ca2+, FDSS) in CHO cells expressing hOX1R. Format: cell-based. As to conditions: CHO cells expressing hOX1R; ligand peptide 300 pM; Fluo-3 maximum fluorescence intensity; read-out: IC50 value OX1. The procedure: (§1) The antagonistic activity of each test compound against human orexin-1 receptor (hOX1R) and orexin-2 receptor (hOX2R) was assayed by a modification of a method described in the literature (Toshikatsu Okumura et al., Biochemical and Biophysical Research Communications 280, 976-981, 2001). Chinese hamster ovary (CHO) cells forced to express hOX1R or hOX2R were inoculated at a density of 20,000 cells/well to a 96-well Black clear bottom plate (Nunc) and cultured at 37° C. for 16 hours under 5% CO2 conditions in a Ham's F-12 medium containing 0.1 mM MEM nonessential amino acids, 0.5 mg/ml G418, and 10% fetal bovine serum (all from Invitrogen Corp.). After removal of the medium, 100 μL of a buffer solution for assay (25 mM HEPES (Dojindo Laboratories), Hanks' balanced salt solution (Invitrogen Corp.), 0.1% bovine serum albumin, 2.5 mM probenecid, and 200 μg/ml Amaranth (all from Sigma-Aldrich Corp.), pH 7.4) containing 0.5 μM Fluo-3 AM ester (Dojindo Laboratories) was added to the cells, which were then incubated at 37° C. for 60 minutes under 5% CO2 conditions. After removal of the buffer solution for assay containing Fluo-3 AM ester, each test compound was dissolved at a concentration of 10 mM in dimethyl sulfoxide and diluted with a buffer solution for assay. Then, 150 μL of the solution was added to the cells, which were then incubated for 30 minutes.
(§2) A ligand peptide (Pyr-[…]NH2; Peptide Institute, Inc.) derived from human orexin-A by the substitution of two amino acids was diluted with a buffer solution for assay to final concentrations of 300 pM for hOX1R and 3 nM for hOX2R. Reaction was initiated by the addition of 50 μL of this ligand solution. The fluorescence intensity of the reaction was measured in each well every second for 3 minutes using Functional Drug Screening System (FDSS; manufactured by Hamamatsu Photonics K.K.), and the maximum fluorescence intensity was used as an index for intracellular Ca^2+ concentration to determine antagonistic activity. The antagonistic activity of the test compound was calculated with fluorescence intensity from a well supplemented with only a diluting buffer solution as 100% and fluorescence intensity from a well supplemented with a buffer solution free from the ligand and the compound as 0%. The 50% inhibitory concentration (IC50 value) was determined on the basis of fluorescence intensity derived from the test compound added at varying concentrations.

Assay [2] deals with T2, orexin-2 receptor (hOX2R) (Homo sapiens, UniProt O43614).
T2 construct: expressed in transfected cells; host or cells: Chinese hamster ovary (CHO) cells
T2 sequence (O43614 1-444): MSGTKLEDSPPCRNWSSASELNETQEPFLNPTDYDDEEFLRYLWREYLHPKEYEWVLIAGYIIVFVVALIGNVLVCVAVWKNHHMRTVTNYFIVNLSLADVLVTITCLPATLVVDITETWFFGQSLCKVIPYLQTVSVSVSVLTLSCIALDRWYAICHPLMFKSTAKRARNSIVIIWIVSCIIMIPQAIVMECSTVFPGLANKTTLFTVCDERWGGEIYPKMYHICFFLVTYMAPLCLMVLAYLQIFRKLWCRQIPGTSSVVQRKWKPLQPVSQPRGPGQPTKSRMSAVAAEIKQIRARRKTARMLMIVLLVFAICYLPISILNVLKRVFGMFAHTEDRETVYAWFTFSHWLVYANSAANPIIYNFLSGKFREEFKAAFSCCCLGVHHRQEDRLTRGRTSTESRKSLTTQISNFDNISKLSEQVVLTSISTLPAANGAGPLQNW
Put plainly: Orexin antagonistic activity assay (intracellular Ca2+, FDSS) in CHO cells expressing hOX2R. Format: cell-based. As to conditions: CHO cells expressing hOX2R; ligand peptide 3 nM; Fluo-3 maximum fluorescence intensity; read-out: IC50 value OX2. The method, then: as §1, §2

Structures are written as SMILES.

Usually IC50 stands for the point on the concentration scale where inhibition reaches its midpoint. In the case of `C[C@@H]1CC[C@@H](c2nc3cc(Cl)ccc3o2)CN1C(=O)c1ccccc1-n1nccn1` (single isomer, unassigned) [Example 3, [(2R*,5R*)-5-(5-Chloro-1,3-benzoxazol-2-yl)-2-methylpiperidin-1-yl][2-(2H-1,2,3-triazol-2-yl)phenyl]methanone], the IC50 in assay [1] was determined as 18.1 nM; in assay [2] it was 4.1 nM.
For `C[C@@H]1CC[C@@H](c2nc3cc(Cl)ccc3o2)CN1C(=O)c1ccccc1-c1ncccn1` (single isomer, unassigned) [Example 7, [(2R*,5R*)-5-(5-Chloro-1,3-benzoxazol-2-yl)-2-methylpiperidin-1-yl][2-(pyrimidin-2-yl)phenyl]methanone], the results for the IC50 in assay [1] and in assay [2] were 49.5 nM and 2 nM, respectively.
Turning to `Cc1ccc(-c2ncccn2)c(C(=O)N2C[C@H](c3nc4cc(F)c(F)cc4o3)CC[C@H]2C)c1` [Example 51, [(2R,5R)-5-(5,6-Difluoro-1,3-benzoxazol-2-yl)-2-methylpiperidin-1-yl][5-methyl-2-(pyrimidin-2-yl)phenyl]methanone], the IC50 came to 13.5 nM in assay [1] and 7.3 nM in assay [2].
Consider `C[C@@H]1CC[C@@H](c2nc3cc(F)ccc3o2)CN1C(=O)c1cc(Cl)ccc1-n1nccn1` [Example 30, [5-Chloro-2-(2H-1,2,3-triazol-2-yl)phenyl][(2R,5R)-5-(5-fluoro-1,3-benzoxazol-2-yl)-2-methylpiperidin-1-yl]methanone], for which the IC50 in assay [1] was determined as 74.4 nM; in assay [2], 3.7 nM.
For `C[C@@H]1CC[C@@H](c2nc3cc(C(F)(F)F)ccc3o2)CN1C(=O)c1cc(Cl)ccc1-c1ncccn1` [Example 39, [5-Chloro-2-(pyrimidin-2-yl)phenyl]{(2R,5R)-2-methyl-5-[5-(trifluoromethyl)-1,3-benzoxazol-2-yl]piperidin-1-yl}methanone] the same measures were 123 nM and 26.3 nM.
For `Cc1ccc(-c2ncccn2)c(C(=O)N2CC(c3nc4cc(Cl)ccc4o3)CC[C@H]2C)n1` (single isomer, unassigned) [Example 4, [(2R*,5R*)-5-(5-Chloro-1,3-benzoxazol-2-yl)-2-methylpiperidin-1-yl][6-methyl-3-(pyrimidin-2-yl)pyridin-2-yl]methanone] the same measures were 4.3 nM and 17.2 nM.
As to `C[C@@H]1CC[C@@H](c2nc3cc(F)ccc3o2)CN1C(=O)c1ccccc1-c1ncccn1` [Example 31, [(2R,5R)-5-(5-Fluoro-1,3-benzoxazol-2-yl)-2-methylpiperidin-1-yl][2-(pyrimidin-2-yl)phenyl]methanone], the values for the IC50 in assay [1] and in assay [2] were 68.1 nM and 29.7 nM, respectively.
As for `Cc1ccc(-n2nccn2)c(C(=O)N2C[C@H](c3nc4cc(F)cc(F)c4o3)CC[C@H]2C)n1` [Example 64, [(2R,5R)-5-(5,7-Difluoro-1,3-benzoxazol-2-yl)-2-methylpiperidin-1-yl][6-methyl-3-(2H-1,2,3-triazol-2-yl)pyridin-2-yl]methanone], the half-maximal inhibitory concentration (IC50) came out at 144 nM in assay [1] and 28.5 nM in assay [2].
For `Cc1ccc(-c2ncccn2)c(C(=O)N2C[C@H](c3nc4ccc(Cl)cc4o3)CC[C@H]2C)c1` [Example 44, [(2R,5R)-5-(6-Chloro-1,3-benzoxazol-2-yl)-2-methylpiperidin-1-yl][5-methyl-2-(pyrimidin-2-yl)phenyl]methanone], the IC50 in assay [1] was determined as 9.1 nM; in assay [2], 23.1 nM.
Turning to `C[C@@H]1CC[C@@H](c2nc3ccc(Cl)cc3o2)CN1C(=O)c1c(F)cccc1-n1nccn1` [Example 48, [(2R,5R)-5-(6-Chloro-1,3-benzoxazol-2-yl)-2-methylpiperidin-1-yl][2-fluoro-6-(2H-1,2,3-triazol-2-yl)phenyl]methanone], the IC50 in assay [1] was found to be 58.8 nM; in assay [2], 12.4 nM.
Turning to `C[C@@H]1CC[C@@H](c2nc3ccc(Cl)cc3o2)CN1C(=O)c1cc(F)ccc1-c1ncccn1` [Example 45, [(2R,5R)-5-(6-Chloro-1,3-benzoxazol-2-yl)-2-methylpiperidin-1-yl][5-fluoro-2-(pyrimidin-2-yl)phenyl]methanone], the IC50 in assay [1] was 77.2 nM; in assay [2] it was 12.2 nM.
